3 substances from patent US6197535A, “Methods for purifying and assaying a conus γ-carboxylase” (University of Utah Research Foundation, priority 1999, dated 2001) can be followed below.

The test system of the test is Conus γ-glutamyl carboxylase (Conus radiatus venom duct microsomes). In kind it is biochemical. Particulars: for Km: read-out: apparent Km.

Broadly, the IC50 is the concentration at which inhibition is half-maximal. By Km is commonly meant the concentration of substrate that gives half-maximal velocity.

As to GKDRLTQMKRILKQRGNKAR [Pro (-20 to -1)], the “enhancement of carboxylation of E.Con-G” value is reported as ~ 25%, the “enhancement of carboxylation of FLEEL” value came to 40% and the “inhibition of carboxylation of -10.Pro-E.Con-G” value was “is an inhibitor”. For the same substance, the IC50 (read-out: apparent IC50) came out at 490 µM.
In the case of “GKDRLTQMKRILKQRGNKAR-GEEELY-NH2 [wild type substrate]”, the Km was determined as 40 µM.
On to GEEELQENQELIREKSN-NH2 [E.Con-G], for which the Km turned out to be 3400 µM.
